Laboratory results taken from paper PMC3942691, “The Dipeptide Monoester Prodrugs of Floxuridine and Gemcitabine—Feasibility of Orally Administrable Nucleoside Analogs” (Pharmaceuticals, 2014).

Assays:
mouse jejunum = experiment: In situ single-pass intestinal perfusion in mice (Peff); type: in vivo; conditions: for Peff, mouse perfusion: 100 µM; for fold higher membrane permeability than parent drug: in situ
Experimental: The perfusion buffer (pH6.0) consisted of 145 mM NaCl, 0.5 mM MgCl2, 1 NaH2PO4, 1 mM CaCl2, 3 mM KCl, 5 mM glucose, and 5 mM MES. The pH of the buffer was adjusted to pH6.0. This perfusion buffer also contained phenol-red (14 µM) as a non-absorbable marker for water flux measurements.
All animal experiments were conducted using protocols approved by the University of Michigan Committee of Use and Care of Animals (UCUCA). Female BALB/c mice (Charles River, IN, USA) weighing 20–25 g were used for all perfusion studies. Prior to each experiment, mice were fasted overnight with free access to water.
The procedure for the in situ single-pass intestinal perfusion is previously reported. Briefly, mice were anesthetized with an i.m. injection of ketamine-xylazine mixture (ketamine: 80–120 mg/kg, xylazine: 5–10 mg/kg) and placed on a heated pad maintained at 37 °C. The abdomen was opened by a midline incision and a jejunal segment (approximately 10 cm) was carefully exposed to cannulate both ends with flexible PVC tubing (2.06 mm i.d., Fisher Scientific Inc., Pittsburgh, PA, USA). All solutions were incubated in a 37 °C water-bath. The isolated segment was rinsed with blank perfusion buffer to clean out any residual debris.
At the start of the study, the test compound (100 µM) in perfusion buffer (pH 6.0) including phenol red was perfused through the intestinal segment (Watson-Marlow Pump 323S, Watson-Marlow Bredel Inc., Wilimington, MA, USA), at the flow rate of 0.1 mL/min. The perfusion buffer was perfused for 30 min to assure steady-state and samples were taken in every 10 min for 90 min. At the end of perfusion, blood samples were collected by cardiac puncture. Blood samples with heparin were centrifuged at 1,000 × g for 10 min at 4 °C to collect plasma samples for LC-MS analysis. Following the termination of the experiment, the length of each perfused intestinal segment was measured.
The net water flux in the mouse perfusion studies was determined using phenol red (14 µM), a non-absorbed and non-metabolized marker. The measured Cout/Cin ratio of test compound was corrected for water flux according to the following equation: [drawing 1] where Cin phenol red and Cout phenol red are equal to the concentration of phenol red in the inlet and the outlet samples, respectively. The effective permeability (Peff; cm/s) through the mouse intestinal wall in the single-pass intestinal perfusion studies was determined according to the following equation: [drawing 2] where Q is the perfusion buffer flow rate (0.1 mL/min), C′out/C′in is the ratio of the outlet/inlet concentration of test compound that is adjusted for water transport, R is the radius of the intestinal segment (set to 0.1 cm), and L is the length of the perfused intestinal segment.
The stability samples of prodrugs and their metabolites, and perfusion samples were determined on an Agilent HPLC system (Agilent Technologies, Santa Clara, CA, USA). The HPLC system consisted of Agilent pumps (1100 series), an Agilent autosampler (1200 series), and an Agilent UV-Vis detector (1100 series) controlled by Chemstation® 32 software (version B.01.03). Samples were resolved in an Agilent Eclipse Plus C18 reverse-phase column (3.5 µm, 4.6 × 75 mm) equipped with a guard column. The mobile phase consisted of 0.1% TFA/water (Solvent A) and 0.1% TFA/acetonitrile (Solvent B) with the solvent B gradient changing from 0%–56% at a rate of […] during a 15 min run for gemcitabine and gemcitabine prodrugs. Standard curves generated for each prodrug and their parent drug were utilized for quantitation of integrated area under peaks. The detection wavelength was 254 nm and spectra were acquired in the 220–380 nm wavelength range. The detection wavelength for phenol red was 430 nm.

Panc-1 cells = experiment: Cell proliferation assay (XTT) in Panc-1 cells; type: cell-based
Experimental: Cell proliferation studies were conducted with Panc-1 and AsPC-1 cells. The cells were seeded into 96-well plates at 80,000 cells per well and allowed to attach/grow for 48 h before drug solutions were added. The culture medium (DMEM +10% fetal bovine serum or RPMI-1640 +10% fetal bovine serum) was removed and the cells were gently washed once with sterile pH 6.0 uptake buffer. Floxuridine, 5′-L-phenylalanyl-L-tyrosyl-floxuridine, gemcitabine and 5′-L-phenylalanyl-L-tyrosyl-gemcitabine were 2-fold serially diluted in pH 6.0 uptake buffer from 5 to 0.078 mmol/L. Buffer alone was used as a 100% viability control. The wash buffer was removed and 30 µL drug solution per well was added and incubated at 37 °C for 2 h in the cell incubator. After this time, the drug solutions were removed and the cells were again gently washed twice with sterile uptake buffer. The culture medium was then added to each well after washing. The cells were allowed to recover for 24 h before evaluating cell viability via 2,3-bis[2-methoxy-4-nitro-5-sulfophenyl]-2H-tetrazolium-5-carboxanilide inner salt (XTT) assays. A mixture (30 µL) containing XTT (1 mg/mL) in sterile RPMI-1640 without phenol red and phenazine methosulfate (N-methyldibenzopyrazine methyl sulfate in sterile PBS, 0.383 mg/mL) reagents were added to the cells and incubated at 37 °C for 1 h, after which the absorbance at 450 nm was read. The concentrations required to inhibit cell growth by 50% (GI50) were calculated using GraphPad Prism version 3.0 by nonlinear data fitting.

[1] = Homo sapiens, PANC-1, 2 h exposure, 24 h recovery, XTT

Peff, mouse perfusion (mouse jejunum; perfusion buffer pH 6.0)	fold higher membrane permeability than parent drug (mouse jejunum) [fold]	GI50 (Panc-1 cells; [1]) [mM]	Peff, mouse perfusion (mouse jejunum; perfusion buffer pH 6.0, listed as floxuridine) [cm/s]	GI50 (Panc-1 cells; Homo sapiens, PANC-1, tested 5 to 0.078 mmol/L) [mM]	Molecule	Peff, mouse perfusion (mouse jejunum; perfusion buffer pH 6.0, listed as gemcitabine) [cm/s]	GI50 (Panc-1 cells; tested 5 to 0.078 mmol/L) [mM]
1.9 ± 0.1 ×10^−5 cm/s	19.0	3 ± 0.3	–	–	NC(Cc1ccccc1)C(=O)NC(Cc1ccc(O)cc1)C(=O)OCC1OC(n2cc(F)c(=O)[nH]c2=O)CC1O [5′-L-Phenylalanyl-L-tyrosyl-floxuridine]	–	–
2.2 ± 0.4 ×10^−5 cm/s	11.0	3.2 ± 0.7	–	–	Nc1ccn(C2OC(COC(=O)C(Cc3ccc(O)cc3)NC(=O)C(N)Cc3ccccc3)C(O)C2(F)F)c(=O)n1 [5′-L-Phenylalanyl-L-tyrosyl-gemcitabine]	–	–
0.1 ± 0.8 ×10^−5 cm/s	–	–	1e-06	> 5	O=c1[nH]c(=O)n([C@H]2C[C@H](O)[C@@H](CO)O2)cc1F [Floxuridine, 5-fluoro-2′-deoxyuridine]	–	–

Molecule	Peff, mouse perfusion (mouse jejunum; perfusion buffer pH 6.0)	fold higher membrane permeability than parent drug (mouse jejunum) [fold]	GI50 (Panc-1 cells; [1]) [mM]	Peff, mouse perfusion (mouse jejunum; perfusion buffer pH 6.0, listed as floxuridine) [cm/s]	GI50 (Panc-1 cells; Homo sapiens, PANC-1, tested 5 to 0.078 mmol/L) [mM]	Peff, mouse perfusion (mouse jejunum; perfusion buffer pH 6.0, listed as gemcitabine) [cm/s]	GI50 (Panc-1 cells; tested 5 to 0.078 mmol/L) [mM]
2′,2′-difluoro-2′-deoxyuridine [Gemcitabine]	0.2 ± 0.2 ×10^−5 cm/s	–	–	–	–	2e-06	> 5
